ChEMBL document CHEMBL5678803, “Selective blockade of TRPA1 channel attenuates pathological pain without altering noxious cold sensation or body temperature regulation” (Pain, 2011)

Experiments:
[1] = target: Cannabinoid receptor 2 (Homo sapiens) (UniProt P34972); test: Inhibition of CB2 receptor (unknown origin) at 10 micromol/L by radioligand binding assay relative to control; conditions: dose 10.0 µmol/L
Homo sapiens [2] = species on record: Homo sapiens; test: Inhibition of sodium channel (unknown origin) at 10 micromol/L by radioligand binding assay relative to control; conditions: dose 10.0 µmol/L
[3] = target: Transient receptor potential cation channel subfamily A member 1 (Rattus norvegicus, UniProt Q6RI86); test: Antagonist activity at rat TRPA1 expressed in HEK293F cells assessed as reduction in AITC-induced increase in intracellular Ca2+ level by FLIPR-based Ca2+ assay; assay type: cell-based
Transient receptor potential cation channel subfamily A member 1 (Rattus norvegicus, UniProt Q6RI86), sequence (Q6RI86 whole entry): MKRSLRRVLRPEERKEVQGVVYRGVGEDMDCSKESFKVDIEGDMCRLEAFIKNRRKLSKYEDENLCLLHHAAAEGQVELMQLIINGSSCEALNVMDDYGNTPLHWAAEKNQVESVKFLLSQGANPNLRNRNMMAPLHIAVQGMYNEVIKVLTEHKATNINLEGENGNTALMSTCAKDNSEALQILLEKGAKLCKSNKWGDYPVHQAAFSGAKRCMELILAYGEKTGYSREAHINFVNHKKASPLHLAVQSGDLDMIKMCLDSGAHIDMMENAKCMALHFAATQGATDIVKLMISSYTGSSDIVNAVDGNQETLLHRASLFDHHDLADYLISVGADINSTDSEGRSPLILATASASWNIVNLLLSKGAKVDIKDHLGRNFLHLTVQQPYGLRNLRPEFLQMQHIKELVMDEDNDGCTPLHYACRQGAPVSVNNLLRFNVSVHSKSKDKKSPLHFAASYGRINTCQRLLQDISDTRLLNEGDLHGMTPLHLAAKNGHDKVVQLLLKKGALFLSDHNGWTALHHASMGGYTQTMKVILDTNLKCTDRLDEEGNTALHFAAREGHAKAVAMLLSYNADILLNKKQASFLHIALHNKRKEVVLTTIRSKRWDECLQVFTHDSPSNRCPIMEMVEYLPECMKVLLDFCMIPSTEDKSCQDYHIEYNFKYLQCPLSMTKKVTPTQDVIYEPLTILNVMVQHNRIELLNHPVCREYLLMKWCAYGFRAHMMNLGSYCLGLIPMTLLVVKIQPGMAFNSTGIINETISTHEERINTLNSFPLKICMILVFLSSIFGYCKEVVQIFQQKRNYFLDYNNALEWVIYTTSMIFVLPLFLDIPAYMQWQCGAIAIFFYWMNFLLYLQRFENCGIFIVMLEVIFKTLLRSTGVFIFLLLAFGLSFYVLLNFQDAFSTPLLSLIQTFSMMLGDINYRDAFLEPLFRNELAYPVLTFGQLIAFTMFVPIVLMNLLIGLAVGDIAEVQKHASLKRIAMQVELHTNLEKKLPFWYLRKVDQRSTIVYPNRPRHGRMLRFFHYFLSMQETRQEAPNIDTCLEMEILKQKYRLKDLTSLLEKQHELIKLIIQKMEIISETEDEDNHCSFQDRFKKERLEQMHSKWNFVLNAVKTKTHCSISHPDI

[4] = target: T1, Transient receptor potential cation channel subfamily A member 1 (Homo sapiens, UniProt O75762); test: Antagonist activity at recombinant human TRPA1 expressed in HEK293F cells assessed as reduction in AITC-induced increase in intracellular Ca2+ level by FLIPR-based Ca2+ assay; assay type: cell-based
T1 sequence (O75762 whole entry): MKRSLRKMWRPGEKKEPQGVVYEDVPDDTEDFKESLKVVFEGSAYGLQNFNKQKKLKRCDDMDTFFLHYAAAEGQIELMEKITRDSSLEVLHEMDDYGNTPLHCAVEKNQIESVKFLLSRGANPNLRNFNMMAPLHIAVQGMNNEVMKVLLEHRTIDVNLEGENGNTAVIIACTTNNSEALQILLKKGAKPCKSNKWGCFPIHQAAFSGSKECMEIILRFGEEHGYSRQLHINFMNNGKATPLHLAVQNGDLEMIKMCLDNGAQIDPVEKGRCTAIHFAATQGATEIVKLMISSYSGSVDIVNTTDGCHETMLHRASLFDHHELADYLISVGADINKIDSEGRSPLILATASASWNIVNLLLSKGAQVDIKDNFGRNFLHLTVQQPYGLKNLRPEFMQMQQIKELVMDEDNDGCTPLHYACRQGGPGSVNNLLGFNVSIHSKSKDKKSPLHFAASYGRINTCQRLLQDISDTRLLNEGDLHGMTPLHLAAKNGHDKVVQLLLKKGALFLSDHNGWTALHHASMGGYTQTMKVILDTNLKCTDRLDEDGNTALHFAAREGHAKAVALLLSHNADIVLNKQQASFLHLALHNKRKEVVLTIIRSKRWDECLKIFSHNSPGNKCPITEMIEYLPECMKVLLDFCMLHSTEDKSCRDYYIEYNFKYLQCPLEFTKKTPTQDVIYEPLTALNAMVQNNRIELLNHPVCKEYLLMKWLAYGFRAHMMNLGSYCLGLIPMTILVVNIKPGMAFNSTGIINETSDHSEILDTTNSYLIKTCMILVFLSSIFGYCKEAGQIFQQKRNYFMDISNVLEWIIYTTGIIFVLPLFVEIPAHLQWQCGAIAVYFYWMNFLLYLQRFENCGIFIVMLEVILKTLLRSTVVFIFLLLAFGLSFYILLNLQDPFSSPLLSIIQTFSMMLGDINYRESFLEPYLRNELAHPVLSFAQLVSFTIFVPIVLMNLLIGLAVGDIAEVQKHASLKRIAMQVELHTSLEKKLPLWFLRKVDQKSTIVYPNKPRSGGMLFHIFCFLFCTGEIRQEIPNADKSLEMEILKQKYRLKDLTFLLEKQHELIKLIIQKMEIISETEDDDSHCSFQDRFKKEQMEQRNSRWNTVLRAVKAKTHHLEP

Homo sapiens [5] = species on record: Homo sapiens; test: Inhibition of sigma receptor (unknown origin) at 10 micromol/L by radioligand binding assay relative to control; conditions: dose 10.0 µmol/L
[6] = Toxicity in Sprague-Dawley rat assessed as increase in body temperature at 3.88 mg/kg, po measured after 480 mins by radiotelemetric analysis; assay type: organism-based; conditions: in vivo, 8 h
[7] = Toxicity in Sprague-Dawley rat assessed as effect on tail withdrawal latency to hot water immersion at 55 degreeC at 11.6 mg/kg, po by tail immersion test; assay type: organism-based; conditions: in vivo
[8] = Toxicity in Sprague-Dawley rat assessed as increase in body temperature at 1.16 mg/kg, po measured after 480 mins by radiotelemetric analysis; assay type: organism-based; conditions: in vivo, 8 h
[9] = target: T1, Transient receptor potential cation channel subfamily A member 1; test: Antagonist activity at TRPA1 (unknown origin)
Rattus norvegicus [10] = test: Antiallodynic activity in CCI-induced neuropathic pain Sprague-Dawley rat model assessed as attenuation of mechanical allodynia at 100 mg/kg, po administered with compound for 1 hrs and measured 10 to 14 days after surgery relative to control; assay type: functional; conditions: time 241-337 hrs
Rattus norvegicus [11] = test: Antiallodynic activity in spinal nerve ligation-induced neuropathic pain Sprague-Dawley rat model assessed as attenuation of mechanical allodynia at 100 mg/kg, po administered with compound for 1 hrs and measured 10 to 14 days after surgery relative to control; assay type: functional; conditions: time 241-337 hrs
Rattus norvegicus [12] = test: Antiallodynic activity in CFA-induced mechanical allodynia Sprague-Dawley rat model assessed as attenuation of mechanical allodynia at 100 mg/kg, po administered with compound for 1 hrs and measured 48 hrs after CFA injection relative to control; assay type: functional; conditions: time 49 hrs

Cannabinoid receptor 2 (Homo sapiens), sequence (P34972 whole entry): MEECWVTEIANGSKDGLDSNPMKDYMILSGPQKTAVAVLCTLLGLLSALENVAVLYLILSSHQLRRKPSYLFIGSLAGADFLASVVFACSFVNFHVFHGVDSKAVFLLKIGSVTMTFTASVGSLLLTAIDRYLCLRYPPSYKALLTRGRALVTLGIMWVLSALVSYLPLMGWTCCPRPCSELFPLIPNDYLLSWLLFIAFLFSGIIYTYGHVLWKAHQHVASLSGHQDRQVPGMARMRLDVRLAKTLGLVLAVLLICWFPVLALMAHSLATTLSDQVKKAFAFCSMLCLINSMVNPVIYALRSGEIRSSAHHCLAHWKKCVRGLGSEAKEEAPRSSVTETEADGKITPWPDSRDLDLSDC

## CC(C)c1ccc(NC(=O)Cn2cnc3c2c(=O)n(C)c(=O)n3C)cc1
[1]
  inhibition: 33%
Homo sapiens [2]
  inhibition: 40%
[3]
  IC50: 6.9 µM
[4]
  IC50: 6.9 µM
Homo sapiens [5]
  inhibition: 37%

## Cc1nc(Nc2cccc3c2C[C@H](O)CC3)oc1-c1ccc(C(F)(F)F)cc1
[6]
  deltaT: 0.9 °C
[7]
  Activity: Toxic
[8]
  deltaT: 0.6 °C

## CC(=N/O)/C(C)=C/c1ccc(Cl)cc1
[3]
  IC50: 8.8 µM
[9]
  IC50: 3.1 µM
[4]
  IC50: 6.9 µM

## NCC1(CC(=O)O)CCCCC1 [GABAPENTIN]
Rattus norvegicus [10]
  Activity: 50%
Rattus norvegicus [11]
  Activity: 50%
Rattus norvegicus [12]
  Activity: 50%
